The values that follow come from patent US9790228B2, “Heterocyclic kinase inhibitors” (Intellikine LLC, priority 2008, dated 2017).

Some results are limits rather than exact numbers.

One data set has as its target p110β/p85α (Homo sapiens, UniProt P42338). In words: PI3K β inhibition assay (TLC lipid kinase or HTRF). Type of data set: biochemical. To be noted: read-out: PI3K β IC50. The method, boiled down: (§1)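 IC50 from TLC lipid kinase assay (25 mM HEPES pH 7.4, 10 mM MgCl2, 100 μg/ml phosphatidylinositol, 10 or 100 μM γ-32P-ATP, 5 min RT, phosphorimager) at 10–12 two-fold dilutions, or HTRF (10 μM PIP2, 10 μM ATP, 1 h RT) measuring PIP3 by TR-FRET; 2% DMSO final.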

Another data set deals with Balb/c splenic B cells. The data set is described as follows: B cell activation and proliferation assay (Alamar Blue). In kind it is cell-based, mouse. To be noted: Mus musculus, B-cell. The method, boiled down: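 Purified Balb/c splenic B cells, 50,000/well, pretreated with compound 30 min (0.2% DMSO), then stimulated with 10 ug/ml LPS or 5 ug/ml anti-IgM F(ab′)2 plus 2 ng/ml IL4 (cocktail concentrations) for 72 h at 37 °C. Alamar Blue 5 h, fluorescence 560/590 nm; IC50/EC50 calculated.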

The next data set concerns the target p110α/p85α (Homo sapiens (Human), UniProt P42336). The data set is described as follows: PI3K α inhibition assay (TLC lipid kinase or HTRF). In kind it is biochemical. An outline of the steps:
as §1
(Time-resolved FRET reads energy transfer from a long-lived donor to a nearby acceptor.)

A further data set concerns the target p110γ (Homo sapiens (Human), UniProt P48736). The data set is described as follows: PI3K γ inhibition assay (TLC lipid kinase or HTRF). Type of data set: biochemical. An outline of the steps: as §1
A further data set addresses p110δ/p85α (Homo sapiens (Human), UniProt O00329). In words: PI3K δ inhibition assay (TLC lipid kinase or HTRF). In kind it is biochemical. An outline of the steps: as §1
In a further data set the test system is lupus disease model mice. To be noted: B6.Slelz.Sle3z model; cited from earlier work.
The conditions of data set [1]: PBS pH 7.4, 24 hours, 37° C.; cited from earlier work.
The conditions of data set [2]: control compound, 5 μM; cited from earlier work.
Another data set has as its system PI3K/Akt/mTor signaling. The data set is described as follows: Kinase signaling in blood (phosflow). Type of data set: cell-based. To be noted: anti-CD3 stimulated splenocytes or PBMC. The protocol: PI3K/Akt/mTor signaling is measured in blood cells using the phosflow method (Methods Enzymol. 2007; 434:131-54). The advantage of this method is that it is by nature a single cell assay so that cellular heterogeneity can be detected rather than population averages. This allows concurrent distinction of signaling states in different populations defined by other markers. Phosflow is also highly quantitative. To test the effects of one or more compounds disclosed herein, unfractionated splenocytes, or peripheral blood mononuclear cells are stimulated with anti-CD3 to initiate T-cell receptor signaling. The cells are then fixed and stained for surface markers and intracellular phosphoproteins.
Similarly, aliquots of whole blood are incubated for 15 minutes with vehicle (e.g. 0.1% DMSO) or kinase inhibitors at various concentrations, before addition of stimuli to crosslink the T cell receptor (TCR) (anti-CD3 with secondary antibody) or the B cell receptor (BCR) using anti-kappa light chain antibody (Fab′2 fragments). After approximately 5 and 15 minutes, samples are fixed (e.g. with cold 4% paraformaldehyde) and used for phosflow. […] The level of phosphrylation of kinase substrates such as Akt and S6 are then measured by incubating the fixed cells with labeled antibodies specific to the phosphorylated isoforms of these proteins. The population of cells are then analyzed by flow cytometry.

p110γ, sequence (P48736 whole entry): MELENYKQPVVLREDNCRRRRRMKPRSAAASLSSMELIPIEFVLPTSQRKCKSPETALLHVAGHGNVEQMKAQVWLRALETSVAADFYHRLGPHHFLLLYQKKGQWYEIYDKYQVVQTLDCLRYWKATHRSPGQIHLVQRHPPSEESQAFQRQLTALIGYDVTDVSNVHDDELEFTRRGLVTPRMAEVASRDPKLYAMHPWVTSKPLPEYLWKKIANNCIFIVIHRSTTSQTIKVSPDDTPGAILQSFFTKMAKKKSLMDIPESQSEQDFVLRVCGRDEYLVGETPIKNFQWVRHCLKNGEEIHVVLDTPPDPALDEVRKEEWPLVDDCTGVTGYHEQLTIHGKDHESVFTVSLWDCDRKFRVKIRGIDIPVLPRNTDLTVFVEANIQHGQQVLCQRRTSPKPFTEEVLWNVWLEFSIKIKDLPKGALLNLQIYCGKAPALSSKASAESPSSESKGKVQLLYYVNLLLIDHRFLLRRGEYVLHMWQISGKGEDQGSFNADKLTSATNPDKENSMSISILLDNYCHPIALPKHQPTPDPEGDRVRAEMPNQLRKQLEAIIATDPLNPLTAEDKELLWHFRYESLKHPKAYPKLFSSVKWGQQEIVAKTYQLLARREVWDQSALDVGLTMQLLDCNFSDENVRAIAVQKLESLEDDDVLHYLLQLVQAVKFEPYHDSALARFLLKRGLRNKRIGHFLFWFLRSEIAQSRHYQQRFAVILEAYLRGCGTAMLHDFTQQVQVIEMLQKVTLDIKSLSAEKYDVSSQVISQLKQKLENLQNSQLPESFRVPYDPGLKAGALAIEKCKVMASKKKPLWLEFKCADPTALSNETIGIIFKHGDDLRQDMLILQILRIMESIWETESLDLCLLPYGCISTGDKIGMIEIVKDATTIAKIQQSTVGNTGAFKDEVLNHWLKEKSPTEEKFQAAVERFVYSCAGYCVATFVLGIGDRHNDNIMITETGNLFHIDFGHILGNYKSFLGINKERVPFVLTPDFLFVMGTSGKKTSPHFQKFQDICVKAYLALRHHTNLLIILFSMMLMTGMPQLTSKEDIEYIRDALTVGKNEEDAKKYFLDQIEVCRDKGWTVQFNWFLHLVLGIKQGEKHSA
p110δ/p85α, sequence (O00329 whole entry): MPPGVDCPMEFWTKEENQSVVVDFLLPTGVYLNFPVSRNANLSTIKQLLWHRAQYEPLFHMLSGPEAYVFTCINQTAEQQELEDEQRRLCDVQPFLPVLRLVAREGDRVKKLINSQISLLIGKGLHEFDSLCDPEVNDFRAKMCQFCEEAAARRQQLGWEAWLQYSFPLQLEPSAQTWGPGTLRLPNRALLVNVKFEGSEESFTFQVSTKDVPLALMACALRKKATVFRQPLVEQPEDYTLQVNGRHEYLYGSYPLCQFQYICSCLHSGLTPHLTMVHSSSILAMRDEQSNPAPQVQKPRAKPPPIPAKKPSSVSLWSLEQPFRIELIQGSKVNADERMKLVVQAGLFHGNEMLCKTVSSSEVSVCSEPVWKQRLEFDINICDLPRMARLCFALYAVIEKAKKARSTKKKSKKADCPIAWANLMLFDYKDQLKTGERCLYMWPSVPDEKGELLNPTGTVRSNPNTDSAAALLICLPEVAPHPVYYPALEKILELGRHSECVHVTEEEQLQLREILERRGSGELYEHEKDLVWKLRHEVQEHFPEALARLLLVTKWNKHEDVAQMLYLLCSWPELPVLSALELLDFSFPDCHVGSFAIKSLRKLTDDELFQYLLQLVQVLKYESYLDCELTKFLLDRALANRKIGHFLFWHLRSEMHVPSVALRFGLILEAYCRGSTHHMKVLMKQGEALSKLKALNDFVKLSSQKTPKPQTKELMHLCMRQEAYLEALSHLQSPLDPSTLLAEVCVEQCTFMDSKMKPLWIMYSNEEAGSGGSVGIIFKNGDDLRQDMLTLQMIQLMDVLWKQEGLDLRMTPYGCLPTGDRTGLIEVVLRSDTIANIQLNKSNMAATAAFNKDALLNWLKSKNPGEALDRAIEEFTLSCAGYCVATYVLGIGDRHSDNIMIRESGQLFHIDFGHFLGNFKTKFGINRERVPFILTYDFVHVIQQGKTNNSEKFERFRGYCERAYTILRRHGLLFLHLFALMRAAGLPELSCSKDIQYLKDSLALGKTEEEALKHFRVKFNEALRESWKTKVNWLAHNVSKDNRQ
p110δ/p85α, sequence (P27986 whole entry partner): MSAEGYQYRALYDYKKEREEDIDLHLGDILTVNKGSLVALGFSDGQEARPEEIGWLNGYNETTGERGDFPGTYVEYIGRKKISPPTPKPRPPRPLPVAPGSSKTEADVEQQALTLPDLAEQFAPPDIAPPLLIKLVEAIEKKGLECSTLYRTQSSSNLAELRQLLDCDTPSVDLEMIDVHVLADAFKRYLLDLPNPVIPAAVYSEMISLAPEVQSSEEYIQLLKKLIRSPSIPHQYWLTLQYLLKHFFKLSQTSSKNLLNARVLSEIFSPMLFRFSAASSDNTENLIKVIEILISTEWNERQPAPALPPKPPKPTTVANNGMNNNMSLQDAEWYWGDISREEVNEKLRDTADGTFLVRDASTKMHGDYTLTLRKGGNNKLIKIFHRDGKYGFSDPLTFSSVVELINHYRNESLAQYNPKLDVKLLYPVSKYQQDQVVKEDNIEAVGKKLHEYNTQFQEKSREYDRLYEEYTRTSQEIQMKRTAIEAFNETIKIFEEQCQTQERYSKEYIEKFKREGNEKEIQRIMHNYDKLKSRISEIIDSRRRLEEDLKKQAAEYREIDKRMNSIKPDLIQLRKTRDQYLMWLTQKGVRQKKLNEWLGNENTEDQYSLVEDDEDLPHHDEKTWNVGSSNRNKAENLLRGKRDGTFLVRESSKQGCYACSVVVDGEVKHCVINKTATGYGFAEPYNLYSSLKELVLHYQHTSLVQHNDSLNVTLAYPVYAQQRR
p110β/p85α, sequence (P42338 whole entry, looked up): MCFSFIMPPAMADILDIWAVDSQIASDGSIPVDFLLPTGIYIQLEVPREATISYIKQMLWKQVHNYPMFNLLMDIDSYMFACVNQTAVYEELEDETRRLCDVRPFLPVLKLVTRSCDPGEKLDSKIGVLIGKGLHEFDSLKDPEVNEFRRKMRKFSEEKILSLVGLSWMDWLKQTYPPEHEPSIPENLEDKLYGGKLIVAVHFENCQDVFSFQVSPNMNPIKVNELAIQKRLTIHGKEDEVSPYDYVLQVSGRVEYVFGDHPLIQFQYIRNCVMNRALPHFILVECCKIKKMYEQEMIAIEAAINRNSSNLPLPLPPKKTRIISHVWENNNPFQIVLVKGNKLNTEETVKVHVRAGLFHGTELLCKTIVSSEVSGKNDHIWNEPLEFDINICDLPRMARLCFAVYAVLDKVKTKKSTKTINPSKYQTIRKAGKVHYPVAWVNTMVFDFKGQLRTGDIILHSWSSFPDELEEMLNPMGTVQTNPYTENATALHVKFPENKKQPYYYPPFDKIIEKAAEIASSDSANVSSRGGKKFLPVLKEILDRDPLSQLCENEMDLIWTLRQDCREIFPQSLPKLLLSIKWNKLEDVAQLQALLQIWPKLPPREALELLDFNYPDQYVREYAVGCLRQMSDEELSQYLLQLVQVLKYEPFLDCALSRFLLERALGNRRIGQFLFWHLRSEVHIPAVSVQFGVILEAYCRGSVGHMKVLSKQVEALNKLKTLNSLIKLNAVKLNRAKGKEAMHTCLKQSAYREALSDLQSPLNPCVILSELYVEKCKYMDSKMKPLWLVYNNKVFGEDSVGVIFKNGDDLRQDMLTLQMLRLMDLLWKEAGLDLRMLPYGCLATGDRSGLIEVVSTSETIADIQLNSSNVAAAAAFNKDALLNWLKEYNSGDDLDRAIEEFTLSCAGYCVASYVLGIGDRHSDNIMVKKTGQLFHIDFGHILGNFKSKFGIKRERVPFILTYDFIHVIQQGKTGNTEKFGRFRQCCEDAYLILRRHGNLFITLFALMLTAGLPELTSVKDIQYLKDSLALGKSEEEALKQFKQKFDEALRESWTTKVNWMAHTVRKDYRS
p110α/p85α, sequence (P42336 whole entry): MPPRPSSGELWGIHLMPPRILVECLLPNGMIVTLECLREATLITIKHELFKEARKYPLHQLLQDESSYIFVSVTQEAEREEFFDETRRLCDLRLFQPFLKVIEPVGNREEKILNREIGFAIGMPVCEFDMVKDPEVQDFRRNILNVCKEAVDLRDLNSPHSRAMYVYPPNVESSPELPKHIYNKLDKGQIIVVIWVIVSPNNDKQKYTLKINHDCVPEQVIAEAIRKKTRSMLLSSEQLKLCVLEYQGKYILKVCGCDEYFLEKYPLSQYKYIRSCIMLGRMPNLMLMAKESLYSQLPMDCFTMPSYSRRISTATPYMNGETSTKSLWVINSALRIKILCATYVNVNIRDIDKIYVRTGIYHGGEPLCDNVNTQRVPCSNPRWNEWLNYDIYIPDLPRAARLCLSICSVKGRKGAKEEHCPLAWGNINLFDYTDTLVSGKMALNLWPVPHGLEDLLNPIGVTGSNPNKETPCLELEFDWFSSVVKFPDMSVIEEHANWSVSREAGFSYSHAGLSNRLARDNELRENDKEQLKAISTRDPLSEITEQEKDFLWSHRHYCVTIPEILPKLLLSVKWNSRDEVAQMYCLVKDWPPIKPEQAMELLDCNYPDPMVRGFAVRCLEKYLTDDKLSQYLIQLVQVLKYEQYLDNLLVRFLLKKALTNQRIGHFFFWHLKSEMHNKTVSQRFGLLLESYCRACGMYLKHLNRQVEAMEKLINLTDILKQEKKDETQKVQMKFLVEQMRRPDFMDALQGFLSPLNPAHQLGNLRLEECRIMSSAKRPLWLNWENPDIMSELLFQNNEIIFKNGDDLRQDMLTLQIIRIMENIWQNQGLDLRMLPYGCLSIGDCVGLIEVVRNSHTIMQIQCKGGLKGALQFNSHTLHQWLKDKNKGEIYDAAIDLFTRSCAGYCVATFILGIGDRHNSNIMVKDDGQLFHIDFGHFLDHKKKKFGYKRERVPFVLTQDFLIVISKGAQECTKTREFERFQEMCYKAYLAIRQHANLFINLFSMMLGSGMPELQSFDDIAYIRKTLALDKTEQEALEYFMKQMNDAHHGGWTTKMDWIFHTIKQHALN
p110α/p85α, sequence (P27986 whole entry partner): as the sequence (P27986 whole entry partner) above

Take `CC(=O)Nc1nc2ccc(-c3nn(Cc4cc5ccccc5nc4N4CCN(C)CC4)c4ncnc(N)c34)cc2[nH]1` [Compound 185]: the 50% inhibitory concentration (IC50) (usually the midpoint of a concentration-inhibition curve) at p110β/p85α is 100 to 1000 nM; at p110α/p85α, above 1000 nM; on p110γ it was above 1000 nM; at p110δ/p85α it was below 100 nM. In the data set with Balb/c splenic B cells, the EC50 (commonly the concentration giving half of the maximal effect) was below 100 nM.
Turning to `Nc1ncnc2c1c(/C=C1/SC(=O)NC1=O)nn2Cc1cc2ccccc2nc1-c1ccccc1F` [Compound 192], the IC50 at p110β/p85α was above 1000 nM; on p110α/p85α it was above 1000 nM; on p110γ, below 100 nM; against p110δ/p85α, below 100 nM. For the same molecule, the EC50 with Balb/c splenic B cells lay in the range of 100 to 1000 nM.
For `CC(=O)Nc1nc2ccc(-c3nn(Cc4cc5ccccc5nc4N4CCCC4)c4ncnc(N)c34)cc2s1` [Compound 195], the IC50 at p110β/p85α is above 1000 nM; at p110α/p85α, below 100 nM; on p110γ it was below 100 nM; against p110δ/p85α, below 100 nM. In addition, the EC50 in the data set on Balb/c splenic B cells was below 100 nM.
For the molecule `CN1CCN(c2nc3ccccc3nc2Cn2nc(-c3ccc4nc(N)sc4c3)c3c(N)ncnc32)CC1` [Compound 199], the IC50 is below 100 nM on p110β/p85α, 100 to 1000 nM against p110α/p85α, below 100 nM on p110γ and below 100 nM against p110δ/p85α. The same molecule came in with an EC50 in the data set on Balb/c splenic B cells below 100 nM.
Take `CO[C@H]1C[C@@H]2CC[C@@H](C)[C@@](O)(O2)C(=O)C(=O)N2CCCC[C@H]2C(=O)O[C@H]([C@H](C)C[C@@H]2CC[C@@H](OCCO)[C@H](OC)C2)CC(=O)[C@H](C)/C=C(\C)[C@@H](O)[C@@H](OC)C(=O)[C@H](C)C[C@H](C)/C=C/C=C/C=C/1C` [RAD001]: in the data set on lupus disease model mice, the lupus symptoms entry is on record as “ameliorate lupus symptoms”.
For `O=C(O)CCCc1ccc(N(CCCl)CCCl)cc1` [chlorambucil], the chemical stability entry in data set [1] is listed as “largely hydrolyzed”.
Turning to `CC(C)[N+](C)(CCOC(=O)C1c2ccccc2Oc2ccccc21)C(C)C` [propantheline], the plasma stability result in data set [2] is on record as “intermediate”.
As to `CCCOc1cc(N)ccc1C(=O)OCCN(CC)CC` [propoxycaine], in data set [2], the plasma stability result is listed as “low”.
With `CO[C@H]1C[C@@H]2CC[C@@H](C)[C@@](O)(O2)C(=O)C(=O)N2CCCC[C@H]2C(=O)O[C@H]([C@H](C)C[C@@H]2CC[C@@H](O)[C@H](OC)C2)CC(=O)[C@H](C)/C=C(\C)[C@@H](O)[C@@H](OC)C(=O)[C@H](C)C[C@H](C)/C=C/C=C/C=C/1C` [rapamycin], in the data set on PI3K/Akt/mTor signaling, the Akt phosphorylation entry is “enhances Akt phosphorylation” and the S6 phosphorylation result is “inhibits S6 phosphorylation”.
